Source: US6727263B2, “Indole and 2,3-dihydroindole derivatives, their preparation and use” (H. Lundbeck A/S, priority 1997, dated 2004)
Like-named read-outs stand apart in the source and are kept apart here.

Experiments:
human 5-HT1A receptors = molecular target: T1, human 5-HT1A receptors (Homo sapiens, UniProt P08908); assay: Inhibition of 3H-5-CT binding to human 5-HT1A receptors
T1 construct: expressed in transfected cells; host or cells: HeLa cells (HA7), used as cell homogenate
T1 sequence (P08908 1-422): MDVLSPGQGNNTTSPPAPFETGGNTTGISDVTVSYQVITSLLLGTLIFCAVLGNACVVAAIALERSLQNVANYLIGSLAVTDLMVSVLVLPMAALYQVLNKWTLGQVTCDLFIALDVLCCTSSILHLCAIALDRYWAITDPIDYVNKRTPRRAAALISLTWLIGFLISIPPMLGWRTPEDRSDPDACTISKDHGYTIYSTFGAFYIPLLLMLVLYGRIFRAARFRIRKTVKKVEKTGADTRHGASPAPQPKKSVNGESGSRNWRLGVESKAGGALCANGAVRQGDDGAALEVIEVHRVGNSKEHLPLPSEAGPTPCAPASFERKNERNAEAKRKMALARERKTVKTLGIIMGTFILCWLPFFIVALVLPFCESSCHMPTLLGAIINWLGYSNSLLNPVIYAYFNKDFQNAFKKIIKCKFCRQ
Protocol: Inhibition of ^3H-5-CT Binding to Human 5-HT1A Receptors
Human 5-HT1A receptors (40 μg of cell homogenate) were incubated for 15 minutes at 37° C. in 50 mM Tris buffer at pH 7.7 in the presence of ^3H-5-CT. Non-specific binding was determined by including 10 μM of metergoline. The reaction was terminated by rapid filtration through Unifilter GF/B filters on a Tomtec Cell Harvester. Filters were counted in a Packard Top Counter.

[1] = tested on: 3H-5-HT uptake into whole rat brain synaptosomes; assay: Inhibition of 3H-5-HT uptake into rat brain synaptosomes; format: biochemical; details: 3H-5-HT accumulation into whole rat brain synaptosomes, in vitro; read-out: Inhibition of serotonin reuptake IC50
Protocol: Inhibition of ^3H-5-HT Uptake Into Rat Brain Synaptosomes
Using this method the ability of drugs to inhibit the accumulation of ^3H-5-HT into whole rat brain synaptosomes is determined in vitro.

cloned 5-HT1A receptors = molecular target: T2, cloned 5-HT1A receptors (Homo sapiens, UniProt P08908); assay: Antagonism of 5-HT induced inhibition of forskolin induced cAMP accumulation; format: cell-based; details: cloned 5-HT1A receptors in transfected HeLa cells (HA7)
T2 construct: expressed in transfected cells; host or cells: HeLa cells (HA7)
T2 sequence (P08908 1-422): T1 sequence (P08908 1-422)
Protocol: The assay was performed as a modification of the method described by Pauwels, P. J et al, Biochem. Pharmacol. 1993, 45, 375.

[2] = cloned human 5-HT1A receptors expressed in transfected HeLa cells (HA7), cell homogenate, 15 minutes at 37° C., pH 7.7

| SMILES | melting point [°C] | IC50 (human 5-HT1A receptors) [nM] | IC50 [1] [nM] | IC50 (cloned 5-HT1A receptors) [nM] | IC50 (human 5-HT1A receptors; read-out: Inhibition of 3H-5-CT binding IC50, cloned human 5-HT1A receptors expressed in transfected HeLa cells (HA7), cell homogenate, 15 minutes at 37° C., pH 7.7) [nM] | IC50 (human 5-HT1A receptors; [2]) [nM] |
| --- | --- | --- | --- | --- | --- | --- |
| Brc1ccc2[nH]cc(CCN3CCN(c4cccc5c4OCCO5)CC3)c2c1.O=C(O)C(=O)O [Compound 1b, 3-[2-[4-(1,4-Benzodioxan-5-yl)piperazin-1-yl]ethyl]-5-bromo-1H-indole oxalate] | 236 to 240 | 7.2 | 2.8 | 5000 | – | – |
| Clc1cccc2[nH]cc(CCN3CCN(c4cccc5c4OCCO5)CC3)c12.O=C(O)C(=O)O [Compound 1e, 3-[2-[4-(1,4-Benzodioxan-5-yl)piperazin-1-yl]ethyl]-4-chloro-1H-indole oxalate] | 210 to 218 | 11 | 0.25 | 2400 | – | – |
| Fc1ccc2[nH]cc(CCN3CCN(c4cccc5c4OCCO5)CC3)c2c1.O=C(O)C(=O)O [Compound 1h, 3-[2-[4-(1,4-Benzodioxan-5-yl)piperazin-1-yl]ethyl]-5-fluoro-1H-indole oxalate] | 224 to 226 | 4.6 | 1.7 | 280 | – | – |
| Clc1ccc2[nH]cc(CCN3CCN(c4cccc5c4OCC5)CC3)c2c1.O=C(O)C(=O)O [Compound 1n, 5-Chloro-3-[2-[4-(2,3-dihydrobenzofuran-7-yl)piperazin-1-yl]ethyl]-1H-indole oxalate] | 134 to 138 | 8.2 | 2.1 | 1900 | – | – |
| Clc1ccc2c(CCN3CC=C(c4cccc5c4OCCO5)CC3)c[nH]c2c1.O=C(O)C(=O)O [Compound 1v, 3-[2-[4-(1,4-Benzodioxan-5-yl)-1,2,3,6-tetrahydropyridin-1-yl]ethyl]-6-chloro-1H-indole oxalate] | 240 to 247 | 0.81 | 0.85 | 3300 | – | – |
| c1cc2c(c(N3CCN(CCc4c[nH]c5ccccc45)CC3)c1)OCCO2 [Compound 2a, 3-[2-[4-(1,4-Benzodioxan-5-yl)Piperazin-1-yl]Ethyl]-1H-Indole Hemifumarate] | – | – | 3.5 | 160 | 2.9 | – |
| CC(=O)N1CC(CCN2CCN(c3cccc4c3OCCO4)CC2)c2ccccc21 (centres unmarked) [Compound 2b] | 119 to 120 | – | 12 | 250 | – | 13 |
| CC1(C)CCc2cc(Cl)cc(N3CCN(CCc4c[nH]c5cc(Cl)ccc45)CC3)c2O1.O=C(O)/C=C/C(=O)O [Compound 3d, 6-Chloro-3-[2-[4-(6-chloro-2,2-dimethyl-3,4-dihydro-2H-1-benzopyran-8-yl)piperazin-1yl]ethyl]-1H-indole fumarate] | 224 to 225 | 21 | 15 | 2300 | – | – |
| Clc1ccc2c(c1)NCC2CCN1CCN(c2cccc3c2OCCO3)CC1.O=C(O)C(=O)O (centres unmarked) [Compound 4d, 3-[2-[4-(1,4-Benzodioxan-5-yl)piperazin-1-yl]ethyl]-6-chloro-2,3-dihydro-1H-indole oxalate] | 185 to 188 | – | 4.3 | 890 | – | 14 |
